Data from ChEMBL document CHEMBL5212743, “Selectivity Literature for EUbOPEN Chemogenomics Library wave 3” (2023).
Blank lines part the entries; values can stand above or below the compound they belong to.

Experiments:
[1] = target: T1, Tyrosine-protein kinase ABL1 (Homo sapiens, UniProt P00519); conditions: at 20 µM
[2] = target: T1, Tyrosine-protein kinase ABL1; conditions: at 20 µM; remark: listed apart in the source
[3] = target: Tyrosine-protein kinase JAK1 (Homo sapiens, UniProt P23458); conditions: at 1 µM
[4] = target: Transient receptor potential cation channel subfamily M member 6 (Homo sapiens) (UniProt Q9BX84); test: Selectivity interaction (KinomeScan (DiscoverX)) EUB0000549a TRPM6; conditions: at 1 µM
[5] = target: Serine/threonine-protein kinase Nek4 (Homo sapiens) (UniProt P51957); test: Selectivity interaction (KinomeScan (DiscoverX)) EUB0000549a NEK4; conditions: at 1 µM
[6] = target: T2, Cytoplasmic tyrosine-protein kinase BMX (Homo sapiens) (UniProt P51813); test: Selectivity interaction (KinomeScan (DiscoverX)) EUB0000549a BMX; conditions: at 1 µM
T2 sequence (whole entry): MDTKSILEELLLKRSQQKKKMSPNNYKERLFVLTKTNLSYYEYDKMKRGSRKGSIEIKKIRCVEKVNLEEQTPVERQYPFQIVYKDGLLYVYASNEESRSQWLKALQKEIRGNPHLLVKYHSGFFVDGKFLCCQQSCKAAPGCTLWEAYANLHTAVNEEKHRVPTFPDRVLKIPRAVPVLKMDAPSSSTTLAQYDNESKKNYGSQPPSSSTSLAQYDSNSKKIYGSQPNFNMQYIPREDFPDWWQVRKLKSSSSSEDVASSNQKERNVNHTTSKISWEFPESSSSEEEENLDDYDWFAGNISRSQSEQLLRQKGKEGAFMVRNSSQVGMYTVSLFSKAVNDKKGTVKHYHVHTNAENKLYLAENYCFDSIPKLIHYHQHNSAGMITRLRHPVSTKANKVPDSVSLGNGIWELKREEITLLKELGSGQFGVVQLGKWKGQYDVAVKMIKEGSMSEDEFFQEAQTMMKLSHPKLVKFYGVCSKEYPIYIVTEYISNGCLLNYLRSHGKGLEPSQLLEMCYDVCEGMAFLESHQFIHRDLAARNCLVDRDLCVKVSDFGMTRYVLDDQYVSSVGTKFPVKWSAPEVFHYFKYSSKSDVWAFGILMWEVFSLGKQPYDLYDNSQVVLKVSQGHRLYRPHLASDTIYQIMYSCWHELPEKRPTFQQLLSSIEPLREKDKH

[7] = target: T3, Serine/threonine-protein kinase 38-like (Homo sapiens, UniProt Q9Y2H1); test: Selectivity interaction (KinomeScan (DiscoverX)) EUB0000549a STK38L; conditions: at 1 µM
T3 sequence (Q9Y2H1 2-464 limits assumed): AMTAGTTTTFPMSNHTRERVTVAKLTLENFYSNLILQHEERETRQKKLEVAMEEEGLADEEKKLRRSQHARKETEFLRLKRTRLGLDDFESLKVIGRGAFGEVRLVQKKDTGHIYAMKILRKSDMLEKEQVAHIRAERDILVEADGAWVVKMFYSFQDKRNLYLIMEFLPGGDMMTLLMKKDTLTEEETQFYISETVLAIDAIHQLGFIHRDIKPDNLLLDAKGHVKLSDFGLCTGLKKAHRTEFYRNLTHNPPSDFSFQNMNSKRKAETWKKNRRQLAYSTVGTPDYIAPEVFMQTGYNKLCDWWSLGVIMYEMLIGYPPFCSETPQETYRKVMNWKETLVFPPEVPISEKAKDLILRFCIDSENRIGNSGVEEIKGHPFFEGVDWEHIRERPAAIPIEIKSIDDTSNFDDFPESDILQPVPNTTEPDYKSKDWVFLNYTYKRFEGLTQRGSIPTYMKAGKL

[8] = target: Beta-1 adrenergic receptor (Homo sapiens) (UniProt P08588); test: Selectivity interaction (Eurofins-Panlabs panel (at Boehringer Ingelheim)) EUB0000314b ADRB1; conditions: at 10 µM
[9] = target: T4, D(1B) dopamine receptor (Homo sapiens, UniProt P21918); test: Selectivity interaction (GPCR panel (PDSP screen)) EUB0000314b DRD5; conditions: at 10 µM
T4 sequence (P21918 whole entry): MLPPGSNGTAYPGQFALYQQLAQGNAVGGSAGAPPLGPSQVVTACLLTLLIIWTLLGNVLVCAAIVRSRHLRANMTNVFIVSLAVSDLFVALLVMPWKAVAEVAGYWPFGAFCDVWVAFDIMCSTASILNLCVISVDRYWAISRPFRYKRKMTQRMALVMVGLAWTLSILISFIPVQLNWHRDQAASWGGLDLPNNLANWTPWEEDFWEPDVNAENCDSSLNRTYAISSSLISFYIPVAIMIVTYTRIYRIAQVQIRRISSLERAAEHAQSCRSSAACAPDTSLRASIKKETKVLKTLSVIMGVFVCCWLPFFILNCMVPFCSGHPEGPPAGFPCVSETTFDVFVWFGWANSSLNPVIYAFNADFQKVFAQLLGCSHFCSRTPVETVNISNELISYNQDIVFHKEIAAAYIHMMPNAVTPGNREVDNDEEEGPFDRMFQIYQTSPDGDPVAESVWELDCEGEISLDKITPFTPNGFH

[10] = target: Gamma-aminobutyric acid receptor subunit beta-2 (Homo sapiens) (UniProt P47870); test: Selectivity interaction (Eurofins-Panlabs panel (at Boehringer Ingelheim)) EUB0000314b GABRB2; conditions: at 10 µM
[11] = target: T5, Serine/threonine-protein kinase LATS2 (Homo sapiens) (UniProt Q9NRM7); test: Selectivity interaction (KinomeScan (DiscoverX)) EUB0000314b LATS2; conditions: at 1 µM
T5 sequence (whole entry): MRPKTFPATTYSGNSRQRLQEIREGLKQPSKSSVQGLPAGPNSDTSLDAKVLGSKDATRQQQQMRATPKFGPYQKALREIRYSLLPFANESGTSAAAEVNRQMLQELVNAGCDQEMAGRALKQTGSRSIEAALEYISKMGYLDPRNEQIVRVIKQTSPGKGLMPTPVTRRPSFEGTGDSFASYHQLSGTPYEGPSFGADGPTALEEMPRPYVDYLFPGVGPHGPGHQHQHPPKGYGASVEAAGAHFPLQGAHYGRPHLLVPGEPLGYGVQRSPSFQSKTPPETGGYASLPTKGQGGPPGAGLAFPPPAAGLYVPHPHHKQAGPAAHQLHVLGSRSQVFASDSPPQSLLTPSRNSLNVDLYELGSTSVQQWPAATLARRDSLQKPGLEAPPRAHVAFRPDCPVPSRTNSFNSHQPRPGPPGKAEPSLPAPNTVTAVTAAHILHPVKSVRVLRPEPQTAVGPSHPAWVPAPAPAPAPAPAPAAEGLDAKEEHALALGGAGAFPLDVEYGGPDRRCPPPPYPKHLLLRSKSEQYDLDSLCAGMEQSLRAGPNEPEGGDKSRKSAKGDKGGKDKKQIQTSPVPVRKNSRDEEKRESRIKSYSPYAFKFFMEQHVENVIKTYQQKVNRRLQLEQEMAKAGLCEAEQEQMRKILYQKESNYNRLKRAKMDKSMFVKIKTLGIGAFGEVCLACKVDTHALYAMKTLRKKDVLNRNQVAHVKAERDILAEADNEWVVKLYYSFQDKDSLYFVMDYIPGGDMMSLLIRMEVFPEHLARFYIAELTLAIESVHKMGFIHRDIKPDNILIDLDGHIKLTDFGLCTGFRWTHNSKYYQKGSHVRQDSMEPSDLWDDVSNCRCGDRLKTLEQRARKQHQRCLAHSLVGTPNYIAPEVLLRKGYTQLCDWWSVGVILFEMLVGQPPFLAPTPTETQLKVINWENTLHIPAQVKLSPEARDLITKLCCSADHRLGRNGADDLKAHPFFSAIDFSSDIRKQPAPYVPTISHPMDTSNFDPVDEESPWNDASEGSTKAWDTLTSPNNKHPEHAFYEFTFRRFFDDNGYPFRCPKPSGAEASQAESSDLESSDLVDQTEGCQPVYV

[12] = target: Sodium-dependent dopamine transporter (Homo sapiens, UniProt Q01959); test: Selectivity interaction (Eurofins-Panlabs screen (receptors)) EUB0000352a SLC6A3; conditions: at 10 µM
Sodium-dependent dopamine transporter, sequence (Q01959 whole entry): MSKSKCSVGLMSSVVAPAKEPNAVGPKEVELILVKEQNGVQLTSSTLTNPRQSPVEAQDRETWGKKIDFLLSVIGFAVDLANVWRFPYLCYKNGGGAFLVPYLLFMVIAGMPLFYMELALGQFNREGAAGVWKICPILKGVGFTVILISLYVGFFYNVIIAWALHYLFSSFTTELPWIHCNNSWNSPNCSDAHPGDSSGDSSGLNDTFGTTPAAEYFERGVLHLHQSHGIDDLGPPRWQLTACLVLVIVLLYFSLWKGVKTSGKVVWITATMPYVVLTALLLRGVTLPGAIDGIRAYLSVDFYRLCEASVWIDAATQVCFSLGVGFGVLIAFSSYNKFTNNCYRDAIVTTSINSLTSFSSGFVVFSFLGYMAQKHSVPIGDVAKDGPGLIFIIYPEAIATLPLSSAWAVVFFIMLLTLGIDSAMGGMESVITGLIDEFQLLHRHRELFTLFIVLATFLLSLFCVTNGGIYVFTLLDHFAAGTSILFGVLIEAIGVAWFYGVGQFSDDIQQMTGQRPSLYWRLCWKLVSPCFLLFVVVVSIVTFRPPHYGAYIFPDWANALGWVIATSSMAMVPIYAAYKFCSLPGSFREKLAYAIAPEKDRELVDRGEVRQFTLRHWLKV

[13] = target: Leucine-rich repeat serine/threonine-protein kinase 2 (Homo sapiens, UniProt Q5S007); test: Selectivity interaction (KinomeScan (DiscoverX)) EUB0000352a LRRK2; conditions: at 1 µM
[14] = target: T3, Serine/threonine-protein kinase 38-like; test: Selectivity interaction (KinomeScan (DiscoverX)) EUB0000352a STK38L; conditions: at 1 µM
[15] = target: Ribosomal protein S6 kinase alpha-6 (Homo sapiens) (UniProt Q9UK32); test: Selectivity interaction (KinomeScan (DiscoverX)) EUB0000586a RPS6KA6; conditions: at 1 µM
Ribosomal protein S6 kinase alpha-6 (Homo sapiens), sequence (Q9UK32 whole entry): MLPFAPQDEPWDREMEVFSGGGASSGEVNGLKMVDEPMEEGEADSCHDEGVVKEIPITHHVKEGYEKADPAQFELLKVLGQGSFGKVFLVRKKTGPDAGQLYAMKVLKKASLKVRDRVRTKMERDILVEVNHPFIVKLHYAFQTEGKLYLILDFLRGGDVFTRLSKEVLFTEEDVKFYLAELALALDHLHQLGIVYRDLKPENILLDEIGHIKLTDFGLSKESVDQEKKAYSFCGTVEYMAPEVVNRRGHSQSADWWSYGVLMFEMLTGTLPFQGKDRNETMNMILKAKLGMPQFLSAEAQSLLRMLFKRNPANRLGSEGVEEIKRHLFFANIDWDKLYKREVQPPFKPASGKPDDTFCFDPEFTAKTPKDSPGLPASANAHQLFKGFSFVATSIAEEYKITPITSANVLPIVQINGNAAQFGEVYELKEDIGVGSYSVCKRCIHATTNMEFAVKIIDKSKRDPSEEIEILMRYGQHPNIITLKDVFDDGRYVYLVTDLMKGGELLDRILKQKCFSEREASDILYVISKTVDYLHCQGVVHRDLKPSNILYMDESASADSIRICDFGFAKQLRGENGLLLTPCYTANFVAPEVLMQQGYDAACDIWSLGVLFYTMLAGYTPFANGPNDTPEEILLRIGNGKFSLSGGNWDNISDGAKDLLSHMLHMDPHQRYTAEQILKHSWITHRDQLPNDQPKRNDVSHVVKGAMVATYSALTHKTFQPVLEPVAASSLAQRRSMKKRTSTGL

[16] = target: T4, D(1B) dopamine receptor; test: Selectivity interaction (GPCR panel (PDSP screen)) EUB0000586a DRD5; conditions: at 10 µM
[17] = target: Kappa-type opioid receptor (Homo sapiens, UniProt P41145); test: Selectivity interaction (GPCR panel (PDSP screen)) EUB0000586a OPRK1; conditions: at 10 µM
Kappa-type opioid receptor, sequence (P41145 whole entry): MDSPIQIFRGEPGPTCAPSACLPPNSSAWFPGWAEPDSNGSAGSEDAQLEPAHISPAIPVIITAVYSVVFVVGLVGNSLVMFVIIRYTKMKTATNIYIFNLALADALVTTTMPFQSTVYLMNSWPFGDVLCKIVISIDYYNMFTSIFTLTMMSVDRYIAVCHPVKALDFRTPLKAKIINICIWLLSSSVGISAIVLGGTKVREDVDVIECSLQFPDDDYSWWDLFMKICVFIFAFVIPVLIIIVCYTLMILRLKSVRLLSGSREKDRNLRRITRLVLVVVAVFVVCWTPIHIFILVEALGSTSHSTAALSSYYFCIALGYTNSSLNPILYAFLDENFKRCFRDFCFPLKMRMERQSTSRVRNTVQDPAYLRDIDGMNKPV

[18] = target: Death-associated protein kinase 1 (Homo sapiens) (UniProt P53355); test: Selectivity interaction (KinomeScan (DiscoverX)) EUB0000586a DAPK1; conditions: at 1 µM
[19] = target: Serine/threonine-protein kinase tousled-like 1 (Homo sapiens) (UniProt Q9UKI8); test: Selectivity interaction (KinomeScan (DiscoverX)) EUB0000586a TLK1; conditions: at 1 µM
Serine/threonine-protein kinase tousled-like 1 (Homo sapiens), sequence (Q9UKI8 whole entry): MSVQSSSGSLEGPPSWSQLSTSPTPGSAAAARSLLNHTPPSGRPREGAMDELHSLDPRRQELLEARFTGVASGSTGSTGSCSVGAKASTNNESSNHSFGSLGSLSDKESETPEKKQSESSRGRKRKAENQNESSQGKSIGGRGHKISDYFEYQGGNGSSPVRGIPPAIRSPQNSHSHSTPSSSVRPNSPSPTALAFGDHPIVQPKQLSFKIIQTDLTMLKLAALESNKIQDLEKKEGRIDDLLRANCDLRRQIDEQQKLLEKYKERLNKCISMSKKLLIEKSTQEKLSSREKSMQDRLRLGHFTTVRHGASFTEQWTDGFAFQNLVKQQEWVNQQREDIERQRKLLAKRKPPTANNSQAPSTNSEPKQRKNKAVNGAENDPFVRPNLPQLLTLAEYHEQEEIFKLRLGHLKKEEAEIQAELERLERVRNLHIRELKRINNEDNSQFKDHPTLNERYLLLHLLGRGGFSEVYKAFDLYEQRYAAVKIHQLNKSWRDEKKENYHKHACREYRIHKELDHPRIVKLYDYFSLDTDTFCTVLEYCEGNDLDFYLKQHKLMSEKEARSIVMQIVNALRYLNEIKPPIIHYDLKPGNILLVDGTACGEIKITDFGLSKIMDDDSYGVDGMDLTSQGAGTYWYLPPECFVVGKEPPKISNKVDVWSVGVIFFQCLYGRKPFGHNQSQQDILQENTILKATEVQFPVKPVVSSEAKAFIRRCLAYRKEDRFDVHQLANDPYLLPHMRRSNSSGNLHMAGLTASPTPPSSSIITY

[20] = target: Serine/threonine-protein kinase 24 (Homo sapiens) (UniProt Q9Y6E0); test: Selectivity interaction (KinomeScan (DiscoverX)) EUB0000586a STK24; conditions: at 1 µM
Serine/threonine-protein kinase 24 (Homo sapiens), sequence (Q9Y6E0 whole entry, looked up): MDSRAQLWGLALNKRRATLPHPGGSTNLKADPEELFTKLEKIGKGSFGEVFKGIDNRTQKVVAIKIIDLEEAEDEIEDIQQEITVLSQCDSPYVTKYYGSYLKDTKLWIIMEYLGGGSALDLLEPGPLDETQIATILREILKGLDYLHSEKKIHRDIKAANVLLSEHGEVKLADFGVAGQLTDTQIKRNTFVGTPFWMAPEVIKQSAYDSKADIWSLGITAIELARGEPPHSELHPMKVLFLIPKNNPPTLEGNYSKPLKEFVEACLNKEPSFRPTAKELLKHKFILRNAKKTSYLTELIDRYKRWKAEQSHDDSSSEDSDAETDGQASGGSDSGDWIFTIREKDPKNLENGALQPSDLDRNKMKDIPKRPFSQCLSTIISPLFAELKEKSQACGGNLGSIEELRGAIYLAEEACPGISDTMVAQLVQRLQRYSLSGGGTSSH

[21] = target: 5-hydroxytryptamine receptor 3A (Homo sapiens) (UniProt P46098); test: Selectivity interaction (GPCR panel (PDSP screen)) EUB0000586a HTR3A; conditions: at 10 µM
[22] = target: T3, Serine/threonine-protein kinase 38-like; test: Selectivity interaction (KinomeScan (DiscoverX)) EUB0000586a STK38L; conditions: at 1 µM
[23] = target: Ribosomal protein S6 kinase alpha-1 (Homo sapiens) (UniProt Q15418); test: Selectivity interaction (KinomeScan (DiscoverX)) EUB0000586a RPS6KA1; conditions: at 1 µM
[24] = target: Ribosomal protein S6 kinase alpha-2 (Homo sapiens) (UniProt Q15349); test: Selectivity interaction (KinomeScan (DiscoverX)) EUB0000586a RPS6KA2; conditions: at 1 µM
[25] = target: Atypical kinase COQ8B, mitochondrial (Homo sapiens) (UniProt Q96D53); test: Selectivity interaction (KinomeScan (DiscoverX)) EUB0000740a ADCK4; conditions: at 1 µM
[26] = target: Aurora kinase B (Homo sapiens, UniProt Q96GD4); test: Selectivity interaction (KinomeScan (DiscoverX)) EUB0000740a AURKB; conditions: at 1 µM
[27] = target: Ephrin type-A receptor 5 (Homo sapiens) (UniProt P54756); test: Selectivity interaction (KinomeScan (DiscoverX)) EUB0000740a EPHA5; conditions: at 1 µM
[28] = target: T5, Serine/threonine-protein kinase LATS2 (Homo sapiens); test: Selectivity interaction (KinomeScan (DiscoverX)) EUB0000740a LATS2; conditions: at 1 µM
[29] = target: 5-hydroxytryptamine receptor 1B (Homo sapiens) (UniProt P28222); test: Selectivity interaction (GPCR panel (PDSP screen)) EUB0000343a HTR1B; conditions: at 10 µM
[30] = target: Serine/threonine-protein kinase Nek1 (Homo sapiens) (UniProt Q96PY6); test: Selectivity interaction (KinomeScan (DiscoverX)) EUB0000343a NEK1; conditions: at 1 µM
[31] = target: T6, Phosphatidylinositol 5-phosphate 4-kinase type-2 gamma (Homo sapiens) (UniProt Q8TBX8); test: Selectivity interaction (KinomeScan (DiscoverX)) EUB0000343a PIP4K2C; conditions: at 1 µM
T6 sequence (whole entry): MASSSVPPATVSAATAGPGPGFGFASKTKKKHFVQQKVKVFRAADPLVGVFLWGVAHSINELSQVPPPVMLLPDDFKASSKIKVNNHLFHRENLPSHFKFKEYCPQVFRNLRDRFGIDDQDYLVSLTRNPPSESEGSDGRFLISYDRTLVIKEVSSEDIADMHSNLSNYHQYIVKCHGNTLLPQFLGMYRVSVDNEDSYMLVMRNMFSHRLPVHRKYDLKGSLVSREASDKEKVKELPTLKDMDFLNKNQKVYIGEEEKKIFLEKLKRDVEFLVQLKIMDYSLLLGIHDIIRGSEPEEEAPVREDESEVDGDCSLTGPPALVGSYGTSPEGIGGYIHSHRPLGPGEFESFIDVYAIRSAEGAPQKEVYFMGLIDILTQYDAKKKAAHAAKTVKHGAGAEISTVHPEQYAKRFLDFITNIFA

T1 sequence (P00519 whole entry): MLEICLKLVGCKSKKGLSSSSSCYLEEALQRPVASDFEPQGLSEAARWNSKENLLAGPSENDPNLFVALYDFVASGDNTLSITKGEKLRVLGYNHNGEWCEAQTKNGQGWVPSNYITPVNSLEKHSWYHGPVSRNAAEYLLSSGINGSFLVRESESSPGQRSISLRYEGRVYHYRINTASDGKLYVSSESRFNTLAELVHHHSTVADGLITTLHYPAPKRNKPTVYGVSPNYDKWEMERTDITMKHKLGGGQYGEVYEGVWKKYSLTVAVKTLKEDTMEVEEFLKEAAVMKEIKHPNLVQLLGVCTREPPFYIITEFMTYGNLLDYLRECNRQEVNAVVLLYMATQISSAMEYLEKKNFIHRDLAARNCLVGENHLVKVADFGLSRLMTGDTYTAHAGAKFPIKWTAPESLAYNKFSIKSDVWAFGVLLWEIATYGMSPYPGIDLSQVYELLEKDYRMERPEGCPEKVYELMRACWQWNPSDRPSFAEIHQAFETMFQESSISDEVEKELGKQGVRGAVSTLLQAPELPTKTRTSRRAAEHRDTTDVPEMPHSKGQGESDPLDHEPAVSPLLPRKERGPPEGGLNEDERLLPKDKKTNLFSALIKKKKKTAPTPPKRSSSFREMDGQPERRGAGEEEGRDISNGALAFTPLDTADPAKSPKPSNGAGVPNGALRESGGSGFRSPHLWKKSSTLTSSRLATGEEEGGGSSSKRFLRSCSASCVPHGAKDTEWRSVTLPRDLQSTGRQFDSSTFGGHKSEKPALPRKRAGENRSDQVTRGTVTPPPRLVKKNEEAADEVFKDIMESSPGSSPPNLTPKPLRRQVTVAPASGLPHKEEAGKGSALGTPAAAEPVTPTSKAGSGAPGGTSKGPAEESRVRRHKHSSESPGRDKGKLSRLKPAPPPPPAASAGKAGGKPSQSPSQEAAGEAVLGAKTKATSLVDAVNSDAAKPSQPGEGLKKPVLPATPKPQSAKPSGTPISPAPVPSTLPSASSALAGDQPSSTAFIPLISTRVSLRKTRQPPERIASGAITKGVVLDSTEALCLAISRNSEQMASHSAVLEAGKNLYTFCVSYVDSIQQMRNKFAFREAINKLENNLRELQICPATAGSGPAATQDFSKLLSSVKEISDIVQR

SMILES: CN(C)C(=O)Cn1cc(-c2nc([C@@](C)(c3ccc(-c4cnc(N)nc4)cc3)C3CC3)no2)cn1
- % of inhibition [1]: 67%
- % of control [2]: 33%
- % of control [3]: 33%

SMILES: C[C@@]1(Cc2ccc(C#N)cc2)C(=O)N(c2cc(Cl)cc(Cl)c2)c2ncc(C(=O)NC3(c4nc(C5CCC5)no4)CC3)n21
- % of control [4]: 0%
- % of control [5]: 12%
- % of control [6]: 40%
- % of control [7]: 48%

SMILES: CCS(=O)(=O)c1cc2cc(C[C@](O)(CC(C)(C)c3ccc(F)cc3C(N)=O)C(F)(F)F)[nH]c2cn1
- % of control [8]: 75%
- % of inhibition [9]: 34%
- % of control [10]: 75%
- % of control [11]: 40%

SMILES: CS(=O)(=O)NCC[C@H](NC(=O)c1cncc2c1cnn2-c1ccc(F)cc1)c1ccnc(S(C)(=O)=O)c1
- % of inhibition [29]: 47.7%
- % of control [30]: 45%
- % of control [31]: 0%

Continued, in another order:

- % of inhibition [12]: 71%
- % of control [13]: 43%
- % of control [14]: 34%
SMILES: CS(=O)(=O)c1cc(C2(NC(=O)c3cncc4c3cnn4-c3ccc(F)cc3)CC2)ccn1

- % of control [15]: 0%
- % of inhibition [16]: 32%
- % of inhibition [17]: 28%
- % of control [19]: 0%
- % of control [20]: 0%
- % of inhibition [21]: 21%
- % of control [22]: 38%
- % of control [23]: 0%
- % of control [24]: 0%
SMILES: CCS(=O)(=O)c1cc2cc(C[C@@](O)(CC(C)(C)c3ccc(F)cc3C(N)=O)C(F)(F)F)[nH]c2cn1
- % of control [18]: 0%

- % of control [25]: 44%
- % of control [26]: 41%
- % of control [27]: 41%
- % of control [28]: 46%
SMILES: CN(C)C(=O)Cn1cc(-c2nc(C3(c4ccc(-c5cnc(N)nc5)cc4)CC3)no2)cn1
